Measured values published in patent US6512166B1, “Combinations of fungal cell wall degrading enzyme and fungal cell membrane affecting compound” (priority 1991, dated 2003).
Read-outs that look alike come from different tables or passages of the source.

Legend:
Botrytis cinerea = assay: Inhibition of spore germination, Eppendorf tube assay (Examples I and II); format: cell-based; conditions: for inhibition at 0.5 µg/mL: read-out: % inhibition; for % inhibition: enzyme 0 μg ml^−1 (fungicide alone); for % inhibition / Ee, expected effect from an additive response according to Limpel's formula, percent inhibition / Io, percent inhibition observed: flusilazole 5 ng ml^−1, miconazole 0.5 μg ml^−1; for ED50 of fungicide (dose effective for 50% inhibition): Table 9
[1] = test system: Fusarium oxysporum strain FOP1; assay: Inhibition of spore germination, ELISA plate assay (Examples V-XIV, XVII); format: cell-based; conditions: Table 28; concentration of flusilazole for 50% inhibition, alone or with enzyme at its ED10 concentration
Experimental: (§1) The concentration where fungal cell wall degrading enzyme individually provides a specified percentage fungal inhibition or where antifungal fungal cell membrane affecting compound individually provides a specific percentage fungal inhibition can be determined as follows: Assays are performed under sterile conditions. Equal volumes of spore suspensions, 3× potato dextrose broth, and the test solution or suspension in 5 mM Tris-HCl (pH 6.0) or 5 mM potassium phosphate buffer (pH 6.7) are mixed. The control is the same as the test solution except for the control the antifungal agent is omitted. The assay mixtures (total volume 45 or 30 μl) are incubated on flat-bottomed ELISA plates, each containing 96 wells, with 2,000 to 3,000 spores per well, at 25° C. After 22 to 30 hours, the plates are placed under an inverted microscope. The percentage of conidia germinating is determined as the percentage of the first 100 spores randomly found in a well. In addition, the lengths of 20 germ tubes are measured and averaged. All experiments are performed twice, with three replicates for each treatment. The inhibition values obtained in the two experiments are combined and averaged, and standard deviations are calculated from the 6 data points. The values obtained for the control are taken as 0% inhibition and all other values are divided by the values obtained for the control and multiplied by 100% to obtain percent inhibition. Determination of concentration corresponding to a particular percent inhibition is carried out by subjecting dose-response curves to regression analysis by using a binomial regression of the third order, with R^2 ranging between 0.95 and 0.99.
(§2) Assays were carried out by the procedure described in the summary of the invention section. Dose response curves were obtained by probit analysis of data collected from two separate experiments with each experiment involving three treatment replicates.
(§3) Dose response curves were determined for each antifungal fungal cell membrane affecting compound and for each fungal cell wall degrading enzyme singly. Then each fungal cell wall degrading enzyme at a concentration giving 10% inhibition when used alone was combined with increasing amounts of antifungal fungal cell membrane affecting compound. Then the concentration of antifungal fungal cell membrane affecting compound causing the ED50 for each combination was calculated by probit analysis of data collected from two experiments with three treatment replicates for each experiment. Assays for inhibition of spore germination were carried out as described in the summary of invention section above.
The relative level of synergism (RS below) for each combination was calculated by applying Limpel's formula: Ee=X+Y−(XY/100) as described in Richer, D. L, Pestic. Sci. 19, 309-315, 1987. In Limpel's formula, X and Y are the percentages of inhibition relative to each compound used alone and Ee is the expected effect for an additional (non-synergistic) effect. If the combination of the two agents produces an observed effect (Eo) greater than Ee, synergism exists, and as the difference between Eo and Ee increases, the level of synergism is greater. In this experiment, the X value (percentage inhibition by fungal cell wall degrading enzyme when used alone was chosen to be 10 (10% inhibition of spore germination when used alone) and the observed effect, Eo, was 50 (i.e., 50% inhibition of spore germination). The Y values were obtained from the determined concentrations of antifungal cell membrane affecting compound causing the ED50 for a combination and the dose response curves for the antifungal cell membrane affecting compound used alone—i.e., the Y value was the percent inhibition for the antifungal fungal cell membrane affecting compound when used alone for the concentration of antifungal fungal cell membrane affecting compound that was determined to cause the ED50 for the combination. Ee values were then calculated from Limpel's formula. […]

B. cinerea strain 12 = assay: Inhibition of spore germination, ELISA plate assay (Examples III-XVI, XVIII); format: cell-based, Botrytis cinerea; conditions: Table 20; concentration of flusilazole for 50% inhibition, alone or with enzyme at its ED10 concentration
Experimental: as §1, §2
Each of 8 antifungal fungal cell membrane affecting compounds were used in combination with each of 8 or 6 fungal cell wall degrading enzymes to provide 50% inhibition (ED50) of B. cinerea strain 12 spore germination. Each fungal cell wall degrading enzyme was used at a concentration giving 10% inhibition of spore germination when used alone in combination with an amount of antifungal fungal cell membrane affecting compound so the combination gave 50% inhibition of spore germination.
as §3
The relative level of synergism (RS below) for each combination was calculated by applying Limpel's formula: Ee=X+Y−(XY/100) as described in Richer, D. L, Pestic. Sci. 19, 309-315, 1987. In Limpel's formula, X and Y are the percentages of inhibition relative to each compound used alone and Ee is the expected effect for an additional (non-synergistic) effect. If the combination of the two agents produces an observed effect (Eo) greater than Ee, synergism exists, and as the difference between Eo and Ee increases, the level of synergism is greater. […]

[2] = Solubility, guidance for forming solutions
From the text: Compositions for use in the systems herein are readily formulated by admixing the fungal cell wall degrading enzymes and the antifungal fungal cell membrane affecting compounds with non-toxic carriers appropriate for the particular use for a composition, e.g., agriculturally acceptable carriers for agricultural uses and pharmaceutically acceptable carriers for medicinal uses. They may be formulated as liquids (solutions or suspensions) or as solids. Since the fungal cell wall degrading enzymes need free water for activity, water must be present at the time of function. […] Water is a preferred vehicle where components are soluble in it. […] Organic solvents can also be used and may be required in some cases if a solution is desired. Guidance for forming solutions follows. […] Suspension can also be employed.

Compound: C[Si](Cn1cncn1)(c1ccc(F)cc1)c1ccc(F)cc1 [Flusilazole, flusilazole]
- inhibition at 5 ng/mL (Botrytis cinerea; Botrytis cinerea, Table 5, endochitinase from G. virens strain 41 at 25 μg ml^−1, with flusilazole 5 ng ml^−1, miconazole 0.5 μg ml^−1 or none (enzyme alone)): 89%
- inhibition at 0.5 µg/mL (Botrytis cinerea; Table 4, endochitinase from T. harzianum strain P1 at 75 μg ml^−1, with flusilazole 5 ng ml^−1, miconazole 0.5 μg ml^−1 or none (enzyme alone)): 100%
- % inhibition (Botrytis cinerea; Table 4): 18%
- % inhibition (Botrytis cinerea; Table 5): 18%
- inhibition at 0.5 µg/mL (Botrytis cinerea; Table 6, chitobiosidase from T. harzianum strain P1 at 75 μg ml^−1, with flusilazole 5 ng ml^−1, miconazole 0.5 μg ml^−1 or none (enzyme alone)): 100%
- % inhibition (Botrytis cinerea; Table 6): 18%
- % inhibition (Botrytis cinerea; Table 7): 18%
- inhibition at 0.5 µg/mL (Botrytis cinerea; Table 7, glucan 1,3-β-glucosidase from T. harzianum strain P1 at 100 μg ml^−1, with flusilazole 5 ng ml^−1, miconazole 0.5 μg ml^−1 or none (enzyme alone)): 100%
- ED50 of fungicide (dose effective for 50% inhibition) (Botrytis cinerea; no endochitinase (0 μg ml^−1)): 60 ng/mL
- ED50 of fungicide (dose effective for 50% inhibition) (Botrytis cinerea; with endochitinase from T. harzianum strain P1 at 10 μg ml^−1): 0.7 ng/mL
- ED50 of fungicide (dose effective for 50% inhibition) (Botrytis cinerea; with endochitinase from T. harzianum strain P1 at 25 μg ml^−1): 0.3 ng/mL
- ED50 of fungicide (Botrytis cinerea; Table 10, no chitobiosidase (0 μg ml^−1)): 60 ng/mL
- ED50 of fungicide (Botrytis cinerea; Table 10, with chitobiosidase from T. harzianum strain P1 at 25 μg ml^−1): 1 ng/mL
- ED50 of fungicide (Botrytis cinerea; Table 10, with chitobiosidase from T. harzianum strain P1 at 50 μg ml^−1): 0.4 ng/mL
- ED50 of fungicide (Botrytis cinerea; Table 10, with chitobiosidase from T. harzianum strain P1 at 75 μg ml^−1): 0.35 ng/mL
- ED50 of fungicide (Botrytis cinerea; Table 10, with chitobiosidase from T. harzianum strain P1 at 100 μg ml^−1): 0.3 ng/mL
- ED50 of fungicide (Botrytis cinerea; Table 11, no glucosidase (0 μg ml^−1)): 60 ng/mL
- ED50 of fungicide (Botrytis cinerea; Table 11, with glucan 1,3-β-glucosidase from T. harzianum strain P1 at 25 μg ml^−1): 3.3 ng/mL
- ED50 of fungicide (Botrytis cinerea; Table 11, with glucan 1,3-β-glucosidase from T. harzianum strain P1 at 50 μg ml^−1): 1 ng/mL
- ED50 of fungicide (Botrytis cinerea; Table 11, with glucan 1,3-β-glucosidase from T. harzianum strain P1 at 75 μg ml^−1): 0.17 ng/mL
- ED50 of fungicide (Botrytis cinerea; Table 12, no endochitinase (0 μg ml^−1)): 60 ng/mL
- ED50 of fungicide (Botrytis cinerea; Table 12, with endochitinase from G. virens strain 41 at 25 μg ml^−1): 2.5 ng/mL
- ED50 of fungicide (Botrytis cinerea; Table 12, with endochitinase from G. virens strain 41 at 50 μg ml^−1): 1 ng/mL
- ED50 of fungicide (Botrytis cinerea; Table 12, with endochitinase from G. virens strain 41 at 75 μg ml^−1): 4.5 ng/mL
- ED50 of fungicide (Botrytis cinerea; Table 12, with endochitinase from G. virens strain 41 at 100 μg ml^−1): 0.22 ng/mL
- Ee, expected effect from an additive response according to Limpel's formula, percent inhibition (Botrytis cinerea; with Chitob. (P1) 25 μg ml^−1): 27%
- Io, percent inhibition observed (Botrytis cinerea; with Endoc. (41) 25 pg ml^−1 (so in the source)): 67%
- Ee, expected effect from an additive response according to Limpel's formula, percent inhibition (Botrytis cinerea; with Endoc. (P1) 25 μg ml^−1): 41%
- Ee, expected effect from an additive response according to Limpel's formula, percent inhibition (Botrytis cinerea; with Glucan. (P1) 25 μg ml^−1): 22.1%
- Io, percent inhibition observed (Botrytis cinerea; with Glucan. (P1) 25 μg ml^−1): 65%
- ED50 [1]: 59.0 (51-65) ng ml^−1
- ED50 (B. cinerea strain 12): 68 (61-85) ng ml^−1
- solubility (solvent in which the substance dissolves) [2]: dissolve in acetone
